Here are results for eleven molecules from patent US9328138B2 (priority 2011, dated 2016).

The target in experiment [1] is T1, HCV genotype 1b (BK) NS3 modified enzyme with a R155K mutation (Hepatitis C virus genotype 1b, UniProt P26663, R1181K).
T1 construct: HCV genotype 1b (BK) NS3 modified enzyme
The experiment can be described thus: HCV NS3 protease time-resolved fluorescence (TRF) assay, genotype 1b R155K. It is filed as biochemical. The note with it: Ki 1b R155K. An outline of the steps: (§1)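 IC50 values derive from 4-parameter fitting of TRF signal after a 6 h room-temperature cleavage of 25 nM peptide substrate by NS3/NS4A that had been pre-incubated 10 min with compound.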

The target in experiment [2] is HCV NS3 protease genotype 3a (3A-1) (Hepatitis C virus genotype 3a, UniProt Q81258). The experiment is described as follows: HCV NS3 protease time-resolved fluorescence (TRF) assay, genotype 3a. It is filed as biochemical. Conditions: Ki 3a. An outline of the steps:
as §1

Where [3] appears, read: first of two values printed in the cell (not explained).
Where [4] appears, read: second of two values printed in the cell (not explained).

Molecules are shown by their SMILES. Structures can show the parent of a compound that is named as a salt.

As a reminder, the Ki is the dissociation constant of the complex between target and ligand, obtained from inhibition or displacement. A higher Ki goes with weaker binding. Take `C=C[C@@H]1C[C@]1(NC(=O)[C@@H]1C[C@@H]2CN1C(=O)[C@H](C(C)(C)C)NC(=O)O[C@@H]1C[C@H]1CCCCCc1c(nc3ccccc3c1OC1C3COCC1CN(CC1CC1)C3)O2)C(=O)NS(=O)(=O)C1(C)CC1` (stereo partly drawn) [Example 256, 9-{[(1aR,5S,8S,10R,22aR)-5-tert-butyl-8-{[(1R,2S)-2-ethenyl-1-{[(1-methylcyclopropyl)sulfonyl]carbamoyl}cyclopropyl]carbamoyl}-3,6-dioxo-1,1a,3,4,5,6,9,10,18,19,20,21,22,22a-tetradecahydro-8H-7,10-methanocyclopropa[18,19][1,10,3,6]dioxadiazacyclononadecino[11,12-b]quinolin-17-yl]oxy}-7-(cyclopropylmethyl)-3-oxa-7-azoniabicyclo[3.3.1]nonane formate]: the inhibition constant Ki in experiment [1] (setting [3]) came to 0.021 nM; in experiment [1] (setting [4]), 0.122 nM; in experiment [2] it was 5.45 nM.
Turning to `C=C[C@@H]1CC1(NC(=O)[C@@H]1C[C@@H]2CN1C(=O)[C@H](C(C)(C)C)NC(=O)O[C@@H]1C[C@H]1CCCCCc1c(nc3ccccc3c1OC1C3COCC1CN(CCOC)C3)O2)C(=O)NS(=O)(=O)C1(C)CC1` (stereo partly drawn) [Example 257, 9-{[(1aR,5S,8S,10R,22aR)-5-tert-butyl-8-{[(1R,2S)-2-ethenyl-1-{[1-methylcyclopropyl)sulfonyl]carbamoyl}cyclopropyl]carbamoyl}-3,6-dioxo-1,1a,3,4,5,6,9,10,18,19,20,21,22,22a-tetradecahydro-8H-7,10-methanocyclopropa[18,19][1,10,3,6]dioxadiazacyclononadecino[11,12-b]quinolin-17-yl]oxy}-7-(2-methoxyethyl)-3-oxa-7-azoniabicyclo[3.3.1]nonane formate], the results for the Ki in experiment [1] (setting [3]), in experiment [1] (setting [4]) and in experiment [2] were 0.032 nM, 0.23 nM and 3.9 nM, respectively.
In the case of `C=C[C@@H]1C[C@]1(NC(=O)[C@@H]1C[C@@H]2CN1C(=O)[C@H](C(C)(C)C)NC(=O)O[C@@H]1C[C@H]1CCCCCc1c(nc3ccccc3c1OC1C3COCC1CN(CC)C3)O2)C(=O)NS(=O)(=O)C1(C)CC1` (stereo partly drawn) [Example 260, (1aR,5S,8S,10R,22aR)-5-tert-butyl-N-[(1R,2S)-2-ethenyl-1-{[(1-methylcyclopropyl)sulfonyl]carbamoyl}cyclopropyl]-17-[(7-ethyl-3-oxa-7-azabicyclo[3.3.1]non-9-yl)oxy]-3,6-dioxo-1,1a,3,4,5,6,9,10,18,19,20,21,22,22a-tetradecahydro-8H-7,10-methanocyclopropa[18,19][1,10,3,6]dioxadiazacyclononadecino[11,12-b]quinoline-8-carboxamide], the results for the Ki in experiment [1] (setting [3]), in experiment [1] (setting [4]) and in experiment [2] were 0.019 nM, 0.093 nM and 2.4 nM, respectively.
For the molecule `C=C[C@@H]1C[C@]1(NC(=O)[C@@H]1C[C@@H]2CN1C(=O)[C@H](C(C)(C)C)NC(=O)O[C@@H]1C[C@H]1CCCCCc1c(nc3ccccc3c1OC1C3COCC1CN(CCOC)C3)O2)C(=O)NS(=O)(=O)C1(C)CC1` (stereo partly drawn) [Example 261, (1aR,5S,8S,10R,22aR)-5-tert-butyl-N-[(1R,2S)-2-ethenyl-1-{[(1-methylcyclopropyl)sulfonyl]carbamoyl}cyclopropyl]-17-{[7-(2-methoxyethyl)-3-oxa-7-azabicyclo[3.3.1]non-9-yl]oxy}-3,6-dioxo-1,1a,3,4,5,6,9,10,18,19,20,21,22,22a-tetradecahydro-8H-7,10-methanocyclopropa[18,19][1,10,3,6]dioxadiazacyclononadecino[11,12-b]quinoline-8-carboxamide], the inhibitory constant (Ki) worked out at 0.026 nM in experiment [1] (setting [3]), 0.155 nM in experiment [1] (setting [4]) and 3.45 nM in experiment [2].
With `C=C[C@@H]1CC1(NC(=O)[C@@H]1C[C@@H]2CN1C(=O)[C@H](C1CCCCC1)NC(=O)O[C@@H]1C[C@H]1CCCCCc1c(nc3ccccc3c1OC1CCN(CCOC(F)(F)F)CC1)O2)C(=O)NS(=O)(=O)C1(C)CC1` (stereo partly drawn) [Example 262, potassium {[(1R,2S)-1-({[(1aR,5S,8S,10R,22aR)-5-cyclohexyl-3,6-dioxo-17-({1-[2-(trifluoromethoxy)ethyl]piperidin-4-yl}oxy)-1,1a,3,4,5,6,9,10,18,19,20,21,22,22a-tetradecahydro-8H-7,10-methanocyclopropa[18,19][1,10,3,6]dioxadiazacyclononadecino[11,12-b]quinolin-8-yl]carbonyl}amino)-2-ethenylcyclopropyl]carbonyl}[(1-methylcyclopropyl)sulfonyl]azanide], the results for the Ki in experiment [1] (setting [3]), in experiment [1] (setting [4]) and in experiment [2] were 0.018 nM, 0.12 nM and 1.2 nM, respectively.
For the molecule `C=C[C@@H]1C[C@]1(NC(=O)[C@@H]1C[C@@H]2CN1C(=O)[C@H](C1(C)CCCCC1)NC(=O)O[C@@H]1C[C@H]1CCCCCc1c(nc3ccccc3c1OC1CC3CCC(C1)N3C)O2)C(=O)NS(=O)(=O)C1(C)CC1` (stereo partly drawn) [Example 263, (1aR,5S,8S,10R,22aR)—N-[(1R,2S)-2-ethenyl-1-{[(1-methylcyclopropyl)sulfonyl]carbamoyl}cyclopropyl]-17-[(8-methyl-8-azabicyclo[3.2.1]oct-3-yl)oxy]-5-(1-methylcyclohexyl)-3,6-dioxo-1,1a,3,4,5,6,9,10,18,19,20,21,22,22a-tetradecahydro-8H-7,10-methanocyclopropa[18,19][1,10,3,6]dioxadiazacyclononadecino[11,12-b]quinoline-8-carboxamide], the inhibition constant (Ki) in experiment [1] (setting [3]) worked out at 0.006 nM; in experiment [1] (setting [4]), 0.011 nM; in experiment [2], 0.041 nM.
As to `C=C[C@@H]1C[C@]1(NC(=O)[C@@H]1C[C@@H]2CN1C(=O)[C@H](C1CCCCC1)NC(=O)O[C@@H]1C[C@H]1CCCCCc1c(nc3ccccc3c1OCCCN1CCN(C(=O)OC(C)(C)C)CC1)O2)C(=O)NS(=O)(=O)C1(C)CC1` [Example 264, tert-butyl 4-(3-{[(1aR,5S,8S,10R,22aR)-5-cyclohexyl-8-{[(1R,2S)-2-ethenyl-1-{[(1-methylcyclopropyl)sulfonyl]carbamoyl}cyclopropyl]carbamoyl}-3,6-dioxo-1,1a,3,4,5,6,9,10,18,19,20,21,22,22a-tetradecahydro-8H-7,10-methanocyclopropa[18,19][1,10,3,6]dioxadiazacyclononadecino[11,12-b]quinolin-17-yl]oxy}propyl)piperazine-1-carboxylate], the Ki amounted to 0.037 nM in experiment [1] (setting [3]), 1.4 nM in experiment [1] (setting [4]) and 7.7 nM in experiment [2].
As to `C=C[C@@H]1CC1(NC(=O)[C@@H]1C[C@@H]2CN1C(=O)[C@H](C1CCCCC1)NC(=O)O[C@@H]1C[C@H]1CCCCCc1c(nc3ccccc3c1OCCCN1CCNCC1)O2)C(=O)NS(=O)(=O)C1(C)CC1` (stereo partly drawn) [Example 265, potassium ({(1R,2S)-1-[({(1aR,5S,8S,10R,22aR)-5-cyclohexyl-3,6-dioxo-17-[3-(piperazin-1-yl)propoxy]-1,1a,3,4,5,6,9,10,18,19,20,21,22,22a-tetradecahydro-8H-7,10-methanocyclopropa[18,19][1,10,3,6]dioxadiazacyclononadecino[11,12-b]quinolin-8-yl}carbonyl)amino]-2-ethenylcyclopropyl}carbonyl)[(1-methylcyclopropyl)sulfonyl]azanide], the Ki in experiment [1] (setting [3]) amounted to 0.016 nM; in experiment [1] (setting [4]) it was 0.11 nM; in experiment [2], 1.15 nM.
Take `C=C[C@@H]1C[C@]1(NC(=O)[C@@H]1C[C@@H]2CN1C(=O)[C@H](C1CCCCC1)NC(=O)O[C@@H]1C[C@H]1CCCCCc1c(nc3ccccc3c1CN1CCN(C)CC1)O2)C(=O)NS(=O)(=O)C1(C)CC1` [Example 266, potassium ({(1R,2S)-1-[({(1aR,5S,8S,10R,22aR)-5-cyclohexyl-17-[(4-methylpiperazin-1-yl)methyl]-3,6-dioxo-1,1a,3,4,5,6,9,10,18,19,20,21,22,22a-tetradecahydro-8H-7,10-methanocyclopropa[18,19][1,10,3,6]dioxadiazacyclononadecino[11,12-b]quinolin-8-yl}carbonyl)amino]-2-ethenylcyclopropyl}carbonyl)[(1-methylcyclopropyl)sulfonyl]azanide]: the Ki in experiment [1] (setting [3]) came out at 0.02 nM; in experiment [1] (setting [4]) it was 0.044 nM; in experiment [2], 7.5 nM.
As to `C=C[C@@H]1C[C@]1(NC(=O)[C@@H]1C[C@@H]2CN1C(=O)[C@H](C1(C)CCCCC1)NC(=O)O[C@@H]1C[C@H]1CCCCCc1c(nc3ccccc3c1OC1CCN(C(=O)OC(C)(C)C)CC1)O2)C(=O)NS(=O)(=O)C1(C)CC1` [Example 267, tert-butyl 4-{[(1aR,5S,8S,10R,22aR)-8-{[(1R,2S)-2-ethenyl-1-{[(1-methylcyclopropyl)sulfonyl]carbamoyl}cyclopropyl]carbamoyl}-5-(1-methylcyclohexyl)-3,6-dioxo-1,1a,3,4,5,6,9,10,18,19,20,21,22,22a-tetradecahydro-8H-7,10-methanocyclopropa[18,19][1,10,3,6]dioxadiazacyclononadecino[11,12-b]quinolin-17-yl]oxy}piperidine-1-carboxylate], the Ki in experiment [1] (setting [3]) stood at 0.114 nM; in experiment [1] (setting [4]), 4.6 nM; in experiment [2], 56 nM.
With `C=C[C@@H]1C[C@]1(NC(=O)[C@@H]1C[C@@H]2CN1C(=O)[C@H](C1(C)CCCCC1)NC(=O)O[C@@H]1C[C@H]1CCCCCc1c(nc3ccccc3c1OC1CCNCC1)O2)C(=O)NS(=O)(=O)C1(C)CC1` [Example 268, (1aR,5S,8S,10R,22aR)—N-[(1R,2S)-2-ethenyl-1-{[(1-methylcyclopropyl)sulfonyl]carbamoyl}cyclopropyl]-5-(1-methylcyclohexyl)-3,6-dioxo-17-(piperidin-4-yloxy)-1,1a,3,4,5,6,9,10,18,19,20,21,22,22a-tetradecahydro-8H-7,10-methanocyclopropa[18,19][1,10,3,6]dioxadiazacyclononadecino[11,12-b]quinoline-8-carboxamide], the inhibition constant Ki was found to be 0.012 nM in experiment [1] (setting [3]), 0.034 nM in experiment [1] (setting [4]) and 0.2 nM in experiment [2].
